Experiment in all cases: ≥ marks a high value that may be exact or a test limit, other limits are often not marked, values filed in µg/mL are converted to µM
For test [1], the system named is Bacillus cereus.
In test [2] the test system is Escherichia coli.
Test [3] deals with Staphylococcus aureus.
Test [4] relates to Staphylococcus aureus USA 300.
Test [5] concerns Enterococcus faecalis ATCC 29212.
In test [6] the test system is Escherichia coli ATCC 25922.
The subject of test [7] is Salmonella enterica subsp. enterica serovar Pullorum C79-13.
In test [8] the test system is Salmonella enterica subsp. enterica serovar Typhimurium C77-31.
The subject of test [9] is Staphylococcus aureus ATCC 29213.
Test [10] has as its system Staphylococcus epidermidis ATCC 12228.
The test system of test [11] is Escherichia coli UB1005.
Test [12] relates to Pseudomonas aeruginosa ATCC 27853.
In test [13] the test system is Salmonella enterica subsp. enterica serovar Typhimurium ATCC 14028.

The source of these data is DBAASP.

Each structure is given as a SMILES string. In brackets after ≈: the same amount, converted by molar mass. Where only a bound is given, the exact number is not on record here.

A word on the MIC: it is the least concentration at which growth counts as inhibited. For `CC(C)C[C@H](NC(=O)[C@@H](N)Cc1ccccc1)C(=O)NCC(=O)N[C@@H](CCCCN)C(=O)N[C@H](C(=O)N[C@@H](Cc1ccccc1)C(=O)N[C@@H](CCCCN)C(=O)N[C@@H](CCCCN)C(=O)N[C@@H](C)C(=O)N[C@H](C(=O)N[C@@H](CCCCN)C(=O)N[C@H](C(=O)N[C@@H](Cc1ccccc1)C(=O)N1CCC[C@H]1C(=O)N[C@@H](C)C(=O)N[C@H](C(=O)N[C@@H](Cc1ccccc1)C(=O)NCC(=O)N[C@@H](CCCCN)C(=O)N[C@H](C(=O)O)C(C)C)C(C)C)C(C)C)C(C)C)C(C)C` [FLGKVFKKAVKVFPAVFGKV], the MIC in test [1] is no less than 116 µM; in test [2], 14.5 µM (≈ 32 µg/mL); in test [3], 116 µM (≈ 256 µg/mL).

Take `CC(C)C[C@H](NC(=O)[C@@H](N)Cc1ccccc1)C(=O)NCC(=O)N[C@H](C(=O)N[C@H](C(=O)N[C@@H](Cc1ccccc1)C(=O)N[C@@H](CCCCN)C(=O)NCC(=O)N[C@@H](C)C(=O)N[C@@H](CO)C(=O)N[C@@H](CCCCN)C(=O)N[C@H](C(=O)N[C@@H](Cc1ccccc1)C(=O)N1CCC[C@H]1C(=O)N[C@@H](C)C(=O)N[C@H](C(=O)N[C@H](C(=O)NCC(=O)N[C@@H](CCCCN)C(=O)N[C@H](C(=O)O)C(C)C)C(C)C)C(C)C)C(C)C)C(C)C)C(C)C` [FLGVVFKGASKVFPAVVGKV]: the MIC was no less than 125 µM in test [1], greater than 125 µM in test [2] and greater than 125 µM in test [3].

Take `CC(C)C[C@H](NC(=O)[C@H](CCCCN)NC(=O)[C@H](Cc1ccccc1)NC(=O)[C@@H](NC(=O)[C@@H](NC(=O)CNC(=O)[C@H](CC(C)C)NC(=O)[C@@H](N)Cc1ccccc1)C(C)C)C(C)C)C(=O)N[C@@H](C)C(=O)N[C@H](C(=O)N[C@@H](CCCCN)C(=O)N[C@H](C(=O)N[C@@H](Cc1ccccc1)C(=O)N1CCC[C@H]1C(=O)N[C@@H](C)C(=O)N[C@H](C(=O)N[C@@H](Cc1ccccc1)C(=O)NCC(=O)N[C@@H](CCCCN)C(=O)N[C@H](C(=O)O)C(C)C)C(C)C)C(C)C)C(C)C` [FLGVVFKLAVKVFPAVFGKV]: the values for the MIC in test [1], in test [2] and in test [3] were no less than 118 µM, greater than 118 µM and greater than 118 µM, respectively.

With `CC[C@H](C)[C@H](NC(=O)[C@H](CCCN=C(N)N)NC(=O)[C@H](CCC(N)=O)NC(=O)[C@@H](NC(=O)[C@@H](NC(=O)[C@H](CCC(N)=O)NC(=O)[C@H](CCC(N)=O)NC(=O)[C@H](Cc1ccccc1)NC(=O)CN)[C@@H](C)CC)C(C)C)C(=O)N[C@@H](CCCCN)C(=O)N[C@@H](CC(=O)O)C(=O)N[C@@H](Cc1ccccc1)C(=O)N[C@@H](CC(C)C)C(=O)N[C@@H](CCC(N)=O)C(=O)N[C@@H](CC(N)=O)C(=O)N[C@@H](CC(C)C)C(=O)N[C@H](C(N)=O)C(C)C` [GFQQIVQRIKDFLQNLV], the MIC in [4] was 12.5 µM (≈ 25.6 µg/mL).

As to `C[C@H](NC(=O)[C@@H]1CCCN1C(=O)CNC(=O)[C@H](CO)NC(=O)[C@H](CCCN=C(N)N)NC(=O)CNC(=O)[C@@H](NC(=O)[C@@H](N)Cc1cnc[nH]1)[C@@H](C)O)C(=O)N[C@H](C(=O)NCC(=O)N[C@@H](Cc1cnc[nH]1)C(=O)N[C@@H](CO)C(=O)NCC(=O)N[C@@H](Cc1cnc[nH]1)C(=O)N[C@@H](CO)C(=O)N[C@@H](CO)C(=O)N[C@H](C(=O)N[C@@H](Cc1cnc[nH]1)C(=O)NCC(=O)N[C@@H](CO)C(=O)O)[C@@H](C)O)[C@@H](C)O` [HTGRSGPATGHSGHSSTHGS], the MIC in test [1] was no less than 134 µM; in test [2], greater than 134 µM.

Take `CC(C)C[C@H](NC(=O)[C@@H](NC(=O)[C@@H](NC(=O)[C@@H](N)CC(C)C)C(C)C)[C@@H](C)O)C(=O)N[C@H](C(=O)N[C@@H](Cc1ccccc1)C(=O)N[C@H](C(=O)NCC(=O)NCC(=O)NCC(=O)N[C@@H](Cc1c[nH]c2ccccc12)C(=O)N[C@@H](CCCCN)C(=O)N[C@@H](Cc1c[nH]c2ccccc12)C(=O)N[C@@H](CCCCN)C(=O)N[C@@H](Cc1c[nH]c2ccccc12)C(=O)N[C@@H](CCCCN)C(=O)N[C@@H](CC(N)=O)C(=O)NCC(=O)N[C@@H](CCCCN)C(=O)N[C@@H](Cc1c[nH]c2ccccc12)C(=O)N[C@@H](CCCCN)C(=O)N[C@@H](Cc1c[nH]c2ccccc12)C(=O)N[C@@H](CCCCN)C(=O)N[C@@H](Cc1c[nH]c2ccccc12)C(=O)O)C(C)C)C(C)C` [LVTLVFVGGGWKWKWKNGKWKWKW]: the MIC in test [5] was 4 µM (≈ 12.1 µg/mL); in test [6], 4 µM (≈ 12.1 µg/mL); in test [7], 16 µM (≈ 48.3 µg/mL); in [8] it was no less than 128 µM; in test [9] it was 32 µM (≈ 96.6 µg/mL); in [10] it was 32 µM (≈ 96.6 µg/mL).

As for `CC[C@H](C)[C@H](NC(=O)[C@H](CCCCN)NC(=O)[C@H](CCCN=C(N)N)NC(=O)[C@H](CC(C)C)NC(=O)[C@H](Cc1ccccc1)NC(=O)[C@H](CCCN=C(N)N)NC(=O)CNC(=O)[C@H](Cc1ccccc1)NC(=O)[C@@H](N)CCCN=C(N)N)C(=O)N[C@@H](CCCN=C(N)N)C(=O)N[C@@H](CCCN=C(N)N)C(=O)N[C@@H](Cc1ccccc1)C(=O)N[C@@H](CCCN=C(N)N)C(=O)N1CCC[C@H]1C(=O)N[C@@H](CCCCN)C(N)=O` [RFGRFLRKIRRFRPK], the MIC is 16 µM (≈ 32.5 µg/mL) in [5]; 16 µM (≈ 32.5 µg/mL) in [11]; 32 µM (≈ 65 µg/mL) in [12]; 16 µM (≈ 32.5 µg/mL) in [7]; 32 µM (≈ 65 µg/mL) in [13]; no less than 32 µM in test [8]. In test [10], this compound registered an MIC of 16 µM (≈ 32.5 µg/mL).

Turning to `CC[C@H](C)[C@H](NC(=O)[C@H](CCSC)NC(=O)[C@@H](NC(=O)[C@H](CCCCN)NC(=O)[C@H](CO)NC(=O)CNC(=O)[C@@H](NC(=O)[C@@H](NC(=O)[C@H](CCCCN)NC(=O)[C@@H](NC(=O)[C@@H]1CCCN1C(=O)[C@H](CO)NC(=O)[C@H](CCCCN)NC(=O)[C@H](CC(C)C)NC(=O)[C@@H]1CCCN1C(=O)[C@@H](NC(=O)[C@H](CCCN=C(N)N)NC(=O)[C@@H](N)CO)C(C)C)C(C)C)[C@@H](C)CC)C(C)C)C(C)C)C(=O)N[C@@H](Cc1ccccc1)C(=O)N[C@@H](C)C(=O)O` [SRVPLKSPVKIVGSKVMIFA], the MIC in test [1] was no less than 119 µM; in [2], greater than 119 µM.

For the compound `CC[C@H](C)[C@H](NC(=O)[C@@H](NC(=O)[C@@H](NC(=O)[C@H](CO)NC(=O)[C@@H]1CCCN1C(=O)[C@H](CCCCN)NC(=O)CNC(=O)CNC(=O)[C@H](CCCCN)NC(=O)[C@@H](NC(=O)[C@H](CO)NC(=O)[C@H](Cc1ccccc1)NC(=O)[C@@H](N)C(C)C)C(C)C)C(C)C)C(C)C)C(=O)N[C@@H](CCCCN)C(=O)N[C@H](C(=O)N[C@H](C(=O)N[C@H](C(=O)N[C@@H](C)C(=O)N[C@@H](CO)C(=O)N[C@H](C(=O)O)[C@@H](C)O)C(C)C)C(C)C)C(C)C` [VFSVKGGKPSVVIKVVVAST], the minimal inhibitory concentration (MIC) is no less than 128 µM in test [1] and greater than 128 µM in test [2].

With `CC(C)C[C@H](NC(=O)CNC(=O)[C@H](CCCCN)NC(=O)[C@@H](NC(=O)[C@H](CC(C)C)NC(=O)[C@@H](NC(=O)[C@H](Cc1ccccc1)NC(=O)[C@H](Cc1ccccc1)NC(=O)[C@H](CCCCN)NC(=O)[C@H](CCCCN)NC(=O)[C@H](C)NC(=O)[C@@H](NC(=O)[C@@H](N)C(C)C)C(C)C)C(C)C)C(C)C)C(=O)N[C@@H](C)C(=O)N1CCC[C@H]1C(=O)N[C@H](C(=O)N[C@@H](CC(C)C)C(=O)N[C@@H](CO)C(=O)N1CCC[C@H]1C(=O)N[C@@H](CO)C(=O)O)C(C)C` [VVAKKFFVLVKGLAPVLSPS], the MIC in test [1] was no less than 122 µM; in test [2], greater than 122 µM.
